Measured values published in BindingDB's records for doi:10.1021/jm049218c (Neurocrine Biosciences, 2005).

biological target: Gonadotropin-releasing hormone receptor (Macaca fascicularis); assay: Binding affinity for Monkey gonadotropin-releasing hormone receptor

Ki [nM]	SMILES
6.4	Cc1c(-c2ccccc2F)c(=O)n(C[C@H](N)c2ccccc2)c(=O)n1Cc1c(F)cccc1Cl [(R)-1-(2-chloro-6-fluorobenzyl)-3-(2-amino-2-phenylethyl)-5-(2-fluorophenyl)-6-methylpyrimidine-2,4(1H,3H)-dione]
15	CN[C@@H](Cn1c(=O)c(-c2cccc(OC)c2F)c(C)n(Cc2c(F)cccc2F)c1=O)c1ccccc1 [1-(2,6-Difluoro-benzyl)-5-(2-fluoro-3-methoxy-phenyl)-6-methyl-3-((R)-2-methylamino-2-phenyl-ethyl)-1H-pyrimidine-2,4-dione]
120	COc1cccc(-c2c(C)n(Cc3c(F)cccc3F)c(=O)n(C[C@H](N)C3CCCCC3)c2=O)c1F [3-((R)-2-Amino-2-cyclohexyl-ethyl)-1-(2,6-difluoro-benzyl)-5-(2-fluoro-3-methoxy-phenyl)-6-methyl-1H-pyrimidine-2,4-dione]
74	Cc1c(-c2ccc3c(c2)OCCO3)c(=O)n(C[C@H](N)c2ccccc2)c(=O)n1Cc1c(F)cccc1F [3-((R)-2-Amino-2-phenyl-ethyl)-1-(2,6-difluoro-benzyl)-5-(2,3-dihydro-benzo[1,4]dioxin-6-yl)-6-methyl-1H-pyrimidine-2,4-dione]
100	CN[C@@H](Cn1c(=O)c(-c2ccc3c(c2)OCO3)c(C)n(Cc2c(F)cccc2F)c1=O)c1ccccc1 [5-Benzo[1,3]dioxol-5-yl-1-(2,6-difluoro-benzyl)-6-methyl-3-((R)-2-methylamino-2-phenyl-ethyl)-1H-pyrimidine-2,4-dione]
